Test results reported in ChEMBL document CHEMBL1146808, “Structure-activity relationships of adenosine A3 receptor ligands: new potential therapy for the treatment of glaucoma” (Bioorg Med Chem Lett, 2004).
pIC50: −log10 of the molar value. Where “and” joins values, the source holds several entries; their conditions need not be identical. Identical values can stand only once.

How the values were obtained:
[1] = target: Adenosine receptor A2a (Homo sapiens, UniProt P29274); assay: biochemical; format: cell-based, HEK293
[2] = target: T1, Adenosine receptor A2b (Homo sapiens, UniProt P29275); assay: biochemical; format: cell-based, HEK293
T1 sequence (P29275 whole entry): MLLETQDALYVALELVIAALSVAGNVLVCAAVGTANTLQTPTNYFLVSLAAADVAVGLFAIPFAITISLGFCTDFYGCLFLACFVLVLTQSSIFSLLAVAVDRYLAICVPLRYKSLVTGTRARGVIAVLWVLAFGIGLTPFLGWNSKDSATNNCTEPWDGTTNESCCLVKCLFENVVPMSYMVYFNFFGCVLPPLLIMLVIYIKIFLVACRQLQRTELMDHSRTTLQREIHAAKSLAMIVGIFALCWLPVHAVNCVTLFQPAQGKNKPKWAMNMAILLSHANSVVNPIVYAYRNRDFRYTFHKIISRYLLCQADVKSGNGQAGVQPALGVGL

[3] = target: T2, Adenosine receptor A1 (Homo sapiens, UniProt P30542); assay: biochemical; format: cell-based, CHO
T2 sequence (P30542 whole entry): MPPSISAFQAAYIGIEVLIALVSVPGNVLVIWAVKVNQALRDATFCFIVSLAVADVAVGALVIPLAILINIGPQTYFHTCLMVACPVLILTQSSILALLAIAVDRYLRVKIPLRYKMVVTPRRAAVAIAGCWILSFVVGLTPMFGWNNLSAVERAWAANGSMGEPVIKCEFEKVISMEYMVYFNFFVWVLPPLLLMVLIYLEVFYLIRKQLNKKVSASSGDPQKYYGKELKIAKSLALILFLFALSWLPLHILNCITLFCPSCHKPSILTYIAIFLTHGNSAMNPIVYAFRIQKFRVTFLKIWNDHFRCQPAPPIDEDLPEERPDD

[4] = test system: Monkey; format: functional, Cercopithecidae, Eye

Chain of Adenosine receptor A2a (P29274 whole entry): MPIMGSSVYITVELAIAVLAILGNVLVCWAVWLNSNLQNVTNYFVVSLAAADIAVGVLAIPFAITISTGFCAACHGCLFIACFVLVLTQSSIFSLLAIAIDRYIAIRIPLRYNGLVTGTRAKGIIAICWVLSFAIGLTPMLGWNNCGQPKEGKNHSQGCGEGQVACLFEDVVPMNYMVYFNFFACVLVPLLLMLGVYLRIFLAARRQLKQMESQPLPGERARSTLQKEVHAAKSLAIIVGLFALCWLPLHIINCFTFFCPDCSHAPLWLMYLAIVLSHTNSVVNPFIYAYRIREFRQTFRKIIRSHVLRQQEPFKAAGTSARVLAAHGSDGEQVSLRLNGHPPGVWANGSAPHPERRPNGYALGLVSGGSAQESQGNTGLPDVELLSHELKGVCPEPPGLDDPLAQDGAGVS

Row | SMILES | pIC50 [1] | pIC50 [2] | pIC50 [3] | Effect [4]
2 | CCCCc1nc2nc[nH]c2c2nc(-c3ccc(-c4ccccc4)cc3)nn12 | < 5.00 | < 5.00 | < 5.00 | 
3 | CCCCc1nc2[nH]cnc2c2nc(-c3ccc(C(F)(F)F)cc3)nn12 |  | < 5.00 | < 5.00 | 19.6 mmHg and 19.1 mmHg
5 | CCCCc1nc2n[nH]cc2c2nc(-c3cccc(Cl)c3)nn12 | 6.12 |  |  | 
7 | COCCc1nc2nc[nH]c2c2nc(-c3ccc(-c4ccccc4)cc3)nn12 | < 5.00 | < 5.00 | < 5.00 | 
8 | O=C(O)CCc1nc2nc[nH]c2c2nc(-c3ccc(-c4ccccc4)cc3)nn12 | < 5.00 |  |  | 
9 | O=C(O)CCCc1nc2nc[nH]c2c2nc(-c3ccc(Cl)cc3)nn12 | < 5.00 | < 5.00 | < 5.00 | 
13 | CCCCc1nc2cccc(Cl)c2c2nc(-c3ccccc3)nn12 | < 5.00 |  |  | 
14 | CCCCc1nc2n[nH]cc2c2nc(-c3ccccc3Cl)nn12 | 6.89 |  |  | 
